The values below come from a melting point compilation (Tetko et al.; mined from patent text by program, amines drawn as free bases though some values may be those of a salt).

The structures appear in SMILES notation. Starred links: 1 amine or outer side, 2 acyl side, 3 side chain; linkers in the order of their positions; H or OH if unused. Residues, ends and D or L forms follow the SMILES beside them. *: point of attachment. βAsp = O=C(O)[CH](CC(=O)[*:2])N[*:1]; Bz = O=C(c1ccccc1)*

The molecule `O=C1c2ccccc2C(=O)N1CC(=O)N1c2ccccc2N(Cc2ccc([N+](=O)[O-])cc2)C(=O)[C@H]2CCC[C@H]21` (relative stereo) yielded a melting point of 224 to 225 °C. For `COc1ccc(Br)c(C(Cl)=NNS(=O)(=O)c2ccccc2)c1` the value was 104 to 106 °C.

Consider `Cc1ccc(-n2nc(C(C)(C)C)cc2NC(=O)Nc2ccc(OCCN3CCS(=O)CC3)c3ccccc23)cc1`, for which the melting point was in the range of 205 to 207 °C. As for `CC1CN(c2cc3c(c(N)c2F)c(=O)c(C(=O)O)cn3C2CC2)CCN1` (configuration not stated), the melting point lay within 181 to 183 °C. Then `O=C(Cl)c1ccccc1SSc1ccccc1C(=O)Cl`, with 145 to 148 °C; and `O=C(NCC1CCN(CC2(C(=O)O)CCOCC2)CC1)N1C(=O)C2(CCCC2)c2ccccc21`, with 146 °C. For `Cc1nn(-c2cccnc2)c(-c2cccc(Cl)c2)c1CC(=O)O` the value was 163 °C; for `CCOc1cc2c(cc1OC)Nc1[nH]cnc(=O)c1C2`, 335 to 336 °C; for `COc1cc2cc(-c3ccccc3C)sc2c(Cl)c1Cl`, 156 to 157 °C. Then `CC(c1oc2ccccc2c(=O)c1-c1cccc(F)c1)n1nc(-c2ccc(F)cc2O)c2c(N)ncnc21` (configuration not stated), with 235 to 237 °C; and `CN(C)C(=O)C1(n2ccc(-c3ccccc3)n2)CC1`, with 96 to 99 °C. `CCCCCc1c(C(C)C)nc(C(C)C)c(CO)c1-c1cccc(F)c1`: the melting point was in the range of 117 to 118 °C. On to `CCCOc1ccc(C=CC(=O)c2c(OC)cc(OC)cc2OC(=O)CC)cc1`, for which the melting point is 102 °C. On to `COC(=O)c1nccnc1Oc1ccccc1C(F)(F)F`, for which the melting point lay in the range of 83 to 85 °C.

Consider `CC(C)(C)OC(=O)N1CCN(CCc2ccc(Nc3ncc4c(n3)-c3ccccc3C(c3ccccc3C(F)(F)F)C4)cc2)CC1` (configuration not stated), for which the melting point fell in the range of 234 to 235 °C. `COc1cc(C(O)CN(c2nc3ccccc3[nH]2)C(C)CCn2cnc3ccccc32)ccc1OCc1ccccc1` (configuration not stated) gave a melting point of 170 to 180 °C.

`Cc1ccc(N)cc1S(=O)(=O)Nc1onc(C)c1C` showed a melting point of 204 to 205 °C. For `CCOC(=O)Cn1[nH]c(C)c(Cc2cc(Cl)cc(Cl)c2)c1=O` the value was 183 to 184 °C; for `N#Cc1cc(OCF)cc([N+](=O)[O-])c1Cl`, 27 to 28 °C; for `CCCc1c(OCC(=O)OC)ccc2c1OC(CCCCCCO)CC2=O` (configuration not stated), 93 to 94.5 °C. For `O=C1CC(c2cccc(-n3ccnc3)c2)=Nc2ccc(-c3cccc(F)c3)cc2N1` the value was 200 to 201 °C; for `CCCc1c(OCCCCCOc2c(C(C)=O)ccc(OCCCC(=O)O)c2CCC)ccc(C(C)=O)c1O`, 61 to 66 °C. Then `C[C@](O)(COc1ccc(Cl)cc1)C(=O)Nc1ccc(C#N)c(C(F)(F)F)c1`, with 146 to 148 °C; and `O=C(NC(Cc1c[nH]c2ccccc12)C(=O)OCc1ccc(Cl)cc1)c1ccccc1` (configuration not stated), with 119 °C. The molecule `O=C(O)c1cc(NCCCc2ccc([N+](=O)[O-])cc2)ccc1O` showed a melting point of 229 to 231 °C.

Consider `NC(=O)C(=O)Nc1nc(-c2cc(-c3ccccc3)on2)cs1`, for which the melting point was 246 to 247 °C.

Turning to `CC(=O)NC[C@H]1CN(c2ccc(N3CC(O[Si](C)(C)C(C)(C)C)C3)c(F)c2)C(=O)O1`, the melting point turned out to be 184 °C.

`COc1cc(CC(=O)NCC(=O)N(CCC(=O)O)Cc2ccc(OC)c(OC)c2)ccc1NC(=O)Nc1ccccc1C`: the melting point is 172 to 174 °C. `NC(=O)CNC(=S)Nc1c(Cl)cccc1Cl`: the melting point fell in the range of 189 to 191 °C. Then `CCC(Oc1c(F)ccc(C)c1F)C1=NCCN1` (configuration not stated), with 70.5 to 71 °C. For `Oc1ccccc1-c1cnc2cnc(-c3ccccc3O)nc2c1` the value was 239 to 240 °C; for `Cc1nc(Br)c(C=O)n1Cc1cc2c(cc1Cl)OCO2`, 141 °C; for `O=C1Nc2cc(Cl)ccc2C(=O)C1c1ccccn1` (configuration not stated), above 330 °C. Then `O=C(c1ccc(F)cc1)N1CCC[C@H](c2noc(-c3ccc(F)cc3)n2)C1`, with 120 to 123 °C; and `CC(C)(C)CC(=O)c1ccc(O)c(Cl)c1Cl`, with 156 to 158 °C. The molecule `O=c1oc(-c2ccccc2)cc(O)c1C(CC1CC1)SC1CCCC1` (configuration not stated) displayed a melting point of 75 to 80 °C.

Regarding `C[C@H](NC(=O)CCn1cc(C2=C(c3cn(C)c4ccccc34)C(=O)NC2=O)c2ccccc21)C(=O)O`, the melting point lay in the range of 240 to 255 °C. `N#Cc1ccc2c(c1)COC2c1ccc(F)cc1` (configuration not stated) came in with a melting point of 96 to 98 °C.

As for `Cc1c(NC(=O)CC(C)(C)C)cc2c(c1C)OC(C)(C)C2=O`, the melting point was in the range of 175 to 176 °C. For `COC(=O)/C=C/c1cc(-c2ccc(S(C)(=O)=O)cc2)n(CC2CCCCC2)n1` the value was 48 to 50 °C. Then `O=C(CC(Cc1cccc2ccccc12)C(=O)O)NCCc1ccccc1` (configuration not stated), with 131 to 135 °C; and `CC(=O)c1ccc(N2CCN(C)CC2)cc1`, with 97 to 99 °C; and `COC(=O)c1nc2ccc(Cl)cc2c(O)c1C(=O)OC`, with 228 to 230 °C. For `CC(=O)C1CCC(CNC(=O)c2cccnc2Oc2ccc(F)cc2)CC1` (configuration not stated) the value was 110 to 111 °C. Molecule `CN1C(=O)CSC(c2cccc(Cl)c2)c2cc(C(N)(c3ccc(Cl)cc3)c3cncn3C)ccc21` (configuration not stated) gave a melting point of 218 °C. Molecule `CC1(C)C(=O)Nc2ccc(C3(C#N)C=CC=N3)cc21` (configuration not stated) gave a melting point of 256 to 258 °C. Then `CCOC(=O)c1cc(=O)c2ccc3nc(C(=O)OC)cc(Cl)c3c2o1`, with 209 °C; and `CN(N=Cc1ccc(Br)cc1)C(=O)c1[nH]c2ccccc2c1-c1ccccc1`, with 210 to 212 °C. Then `CN1CCN(c2ccc(Cl)c(C3(C)C(=O)Nc4ccc(Cl)cc43)c2)CC1` (configuration not stated), with 155 °C; and `Fc1ccc(OC2CCN(CCc3c[nH]c4ccccc34)CC2)cc1`, with 109 to 111 °C. For `CCC1OCCn2c1nc(C(=O)NCc1ccc(F)cc1-n1cncn1)c(OCc1ccccc1)c2=O` (configuration not stated) the value was 155 to 157 °C. In turn, `CN1Cc2c(C#C[Si](C)(C)C)ncn2-c2ccc(F)cc2C1=O` came in with a melting point of 184 to 185 °C. On to `Fc1cccc(N=C2SCCN2C(=S)Nc2cccc(F)c2)c1`, for which the melting point lay in the range of 108 to 109 °C.

`Nc1nc2c(s1)CCN(CCC=Cc1ccccc1)CC2`: the melting point was 157 to 158 °C. For `CCn1c(=O)c2c(nc(/C=C/c3ccc(OC(=O)c4ccccc4)c(OC)c3)n2C)n(CC)c1=O` the value was 234 to 236 °C. For `N#Cc1cccc(-c2nc(-c3ccc(C(N)=O)cc3)cc3cccnc23)c1` the value was 237 to 240 °C; for `CCCc1cc(Cl)c2oc(C(=O)c3ccccc3)c(C)c2c1OC(=O)c1ccccc1`, 141 to 142 °C.

With `NC(=O)c1cccc(-c2ccc(Cl)c3cc(Cc4ccc(F)c(F)c4)sc23)c1`, the melting point is 185 to 186 °C.

Regarding `CN(c1cccc2cc(C3=NCC(CN4CCS(=O)CC4)S3)[nH]c12)S(=O)(=O)c1ccccn1` (configuration not stated), the melting point lay in the range of 193 to 194 °C. For `CC(NC(=O)CC(NC(=O)c1ccccc1)C(=O)O)C(=O)N1CCCC1C(=O)O` (stereo not drawn) ({Bz-βAsp}-Ala-Pro-OH; configuration not given here) the value was 110 °C. On to `CCOC(=O)c1cn(C)c2ccsc2c1=O`, for which the melting point lay in the range of 122 to 128 °C. For `CCCCc1nc2c(N)nc3cccnc3c2n1CCCC(C)=NOC` the value was 132 to 134 °C; for `COC(=O)Cc1cc(C(=O)c2ccccc2Cl)ccc1O`, 119 °C; for `CC[Si](CC)(CC)c1cccc(-c2ccccc2)c1O`, 44 to 46 °C. The molecule `CCOC(=O)CN1CSCCC(N2C(=O)c3ccccc3C2=O)C1=O` (configuration not stated) gave a melting point of 192 to 194 °C. For `CCCCN(CCCC)Cc1nc(-c2ncn3c2[C@@H]2CCN2C(=O)c2c(Cl)cccc2-3)no1` the value was 120 to 125 °C; for `Nc1ncc(-c2cc(C(F)(F)F)cc(C(F)(F)F)c2)nc1C(=O)Nc1cccnc1`, 220 to 222 °C; for `O=C(O)c1ccnc(-c2cccc3cc(Cc4cccc(C(F)(F)F)c4)sc23)c1`, 231 to 232 °C.

`COCCNc1nc(-n2ccnc2)nc2ccc(C(=O)OC)cc12` showed a melting point of 252 to 253 °C. `Cn1c(C=O)cnc1[N+](=O)[O-]` displayed a melting point of 114 to 115 °C.

On to `NC(=O)N1C(=O)C(=C(OC(=O)COCc2ccccc2)c2cccs2)c2cc(F)c(Cl)cc21`, for which the melting point fell in the range of 150 to 175 °C. Then `COC(=O)c1c(C)sc2cc(CCl)ccc12`, with 78 to 79 °C. For `Cc1ccc(C)c(C(CCC(=O)O)Oc2cc(OCc3ccsc3)ccc2C#N)c1` (racemic) the value was 135 to 136 °C; for `C1=C2NCCCN2C(c2ccccc2)c2ccccc2C1` (configuration not stated), 138 to 141 °C.

Take `CCOC(=O)Nc1ccc(OC)c(OC)c1`: the melting point lay within 75 to 78 °C. Then `Cc1cccc(C(=O)Nc2c[nH]nc2C(=O)NCCCOC(C)C)n1`, with 169 to 170 °C. For `COc1ccc(CSc2nnc(-c3ccc4c(c3)CCO4)o2)cc1F` the value was 121 to 122 °C; for `CNC(=O)Nc1ccc(Cl)c(Cl)c1`, 156 °C; for `C#Cc1ccc2c(c1)C(c1ccccn1)=NCc1c(-c3nc(C(C)C)no3)ncn1-2`, above 200 °C.

`CCOC(=O)C1=C(C=NO)Nc2nccn2C1c1cccc([N+](=O)[O-])c1` (configuration not stated) returned a melting point of 229 to 230 °C. Then `CC1=Nc2ccccc2CC(c2ccsc2C)N1C` (configuration not stated), with 91 to 92 °C. Then `CCOc1ccc2[nH]c(=O)n(C3CCOCC3)c2c1`, with 155 °C; and `CCN(CC)CCCC(=O)O`, with 45 to 47 °C. For `CCC(COC)n1nnc2c(Nc3ccc(C(C)=O)cc3Br)nc(C)nc21` (configuration not stated) the value was 133 to 134 °C; for `N#Cc1cc(-c2ccncn2)c[nH]c1=O`, above 250 °C; for `O=C(NCC(=O)N1CCCCC1)OCc1ccccc1`, 111 to 112 °C. In turn, `CC(C)c1ccc(-c2nc(=O)n(Cc3ccccc3)c3ccc(OCC#N)cc23)cc1` returned a melting point of 139 to 141 °C.

As usually defined, the melting point is the temperature of the solid-liquid transition.
